From PMC10946950, “Stretching the Bisalkyne Raman Spectral Palette Reveals a New Electrophilic Covalent Motif” (Chemistry (Weinheim an Der Bergstrasse, Germany), 2023)
Entries after “also recorded” stand apart in the source; their conditions may differ.

How the values were obtained:
ES2 cells = experiment: AlamarBlue cell viability assay; assay type: cell-based; conditions: Homo sapiens, ES-2, incubation 72 h
Protocol: Cell Culture. Human ovarian cancer cell line ES2 was purchased from the American Type Culture Collection, and cells maintained in a humidified incubator at 37°C and 5% CO2 in Dulbecco’s Modified Eagle Medium (DMEM, high glucose, Pyruvate, No Glutamine) (Gibco, cat#21969035), 10% FCS, 1% L-Glutamine (200 mM, ThermoFisher, cat#25-030-081), 1% Pen/Strep (ThermoFisher, cat# […]
AlamarBlue cell viability assay. ES2 cells were plated in sextuplicate wells in a 96-well plate at 3000 cells per well. Compounds were made up as 10 mM stocks in DMSO and added to the cells after 24 h at a range of concentrations (100 µM, 30 µM, 10 µM, 3 µM, 1 µM, 0.3 µM, 0.1 µM, 0.03 µM, 0.01 µM, DMSO only) in 100µl. As a background control 6 wells were plated with media with added DMSO and without cells. After 72 h, 11µl (10%) alamarBlue cell viability reagent (ThermoFisher, cat# DAL1025) was added to each well, including the background control. The plate was incubated at 37°C for 4 h after which the absorbance of the wells was measured with a standard spectrophotometer (Tecan Spark 20M) read at 540nm excitation and 580nm emission wavelength. For each sample the background signal intensity was subtracted from the sample signal intensity and then normalized to the DMSO […]
Subsequent analysis was performed on GraphPad Prism 9 software where the concentrations were converted to a logarithmic scale to which a non -linear regression curve was fitted using the log(inhibitor) vs normalized response with a variable slope model to calculate EC50 values.
Figure S3. EC50 values for compounds 3a – 3n in ES2 cells. Values calculated from 6 technical replicates following incubation for 72 h.
(§1) (1 picture or pasted object on this page, not shown here)

[1] = LC-MS based glutathione (GSH) reactivity assay; assay type: in vitro ADME; conditions: for conversion to GS-adduct over 24 h / extent of conversion to GS-adducts (in words) / conversion to GS-adduct within 5 min: GSH, ACN:PBS buffer (1:1), 37 °C; for conversion to GS-adduct over 24 h / conversion to GS-adduct within 5 min: LC-MS 254 nm; for extent of conversion to GS-adducts (in words): runs at 5 min, 2 h; for conversion to GS-adduct over 24 h / extent of conversion to GS-adducts (in words): 24 h; for GSH reactivity compared with the electronically similar tag: 3b vs 3a, 3f vs BADY, 3g vs 3e, data not shown
Protocol: LC-MS Assay: To 0.5 ml of GSH (50 mmol) in assay buffer (100 mM PBS in H2O) at 37 °C, 0.5 ml of the diyne tag (5 mmol) in CH3CN was added to give a final concentration of 25 mmol and 2.5 mmol of GSH and diyne tags respectively. A magnetic stirbar was added to the assay mixture and stirred at 37 °C. Aliquots from the assay mixture were pipetted out and diluted for LC-MS (ESI+) submissions at 5 min, 2 h and 24 h time points. The chromatogram peaks at 254 nm were extracted to pick the UV-active [M+H]+ values corresponding to the unreacted tags and GS-Tag adducts. Relative intensity (or % conversion) of GS-Tag adduct compared to the unreacted tag for individual LC -MS run was calculated by taking the percentage of mAUGS-Tag divided by mAUGS-Tag + mAUunreacted tag (if A -> B, then % conversion = B/A+B). When [M+H]+ peak of the unreacted tag was below detectable limits, adduct […]
Figure S4. Overlay of the UV-active chromatograms extracted at 254 nm from the LC-MS runs of 3a, 3d, BADY, 3e, 3j and 3k. The chromatograms for each tag at 5 min (black), 2 h (green), 24 h (red) are overlaid. Minimal (3a, BADY), partial (3e) and full (3d, 3j and 3k) conversion were observed which correlated with the ring electronics. […]
are overlaid in a single graph. Conversion is deemed complete when the tag (M) was below detectable limits. * Tags isolated as a mixture of hetero-and homodimers or insoluble in the assay buffer (3i and 3c) were not included in the study. Tags 3b, 3f and 3g have not been shown as their reactivities were similar to the electronicall y similar 3a, BADY and 3e respectively. […]
as §1

[2] = NMR based GSH-reactivity assay; assay type: in vitro ADME; conditions: CD3CN:PBS 1:1, 37 °C
Protocol: NMR Assay: To 0.5 ml of assay buffer (1:1 CD3CN : 100 mM PBS in H2O), the individual diyne tags (10 mmol) were added, transferred to an NMR tube and 1H NMR spectra was acquired. To another 0.5 ml of the assay buffer, GSH (100 mmol) was added, which was then transferred to the NMR tube containing the buffer solution of the tags. The solution was mixed by inverting the tube several times. A final solution of 5 mmol tag and 50 mM GSH was achieved, a magnetic stirbar was added to the tubes and the NMR tubes were left on a stirplate at 37 °C. 1H NMR was recorded at 310 K (37 °C) after ~5 min and 24 h of reaction set up.
as §1

Row | SMILES | EC50 (ES2 cells) [µM] | conversion to GS-adduct over 24 h [1] | extent of conversion to GS-adducts (in words) [1] | GSH reactivity compared with the electronically similar tag [1] | other results
1 | COC(=O)c1ccc(C#CC#Cc2cncn2C)n1C [3 a] | ≥ 100 | 1–2% | Minimal |  | change of 1H NMR 24 h post GSH addition [2]: no changes
2 | COC(=O)c1ccc(C#CC#Cc2cccnc2)cc1 [3 f] | ≥ 100 |  |  | similar | 
3 | COC(=O)c1ccc(C#CC#Cc2nccs2)cc1 [3 d] |  | reacted completely | complete conversion |  | conversion to GS-adduct within 5 min [1]: ~25%; extent of conversion to GS-adducts (in words) ([1]; listed as 3d): full
4 | COC(=O)c1ccc(C#CC#Cc2ccccn2)nc1 [3 i] | 1.63 |  |  |  | 
5 | COC(=O)c1ccc(C#CC#Cc2ncccn2)nc1 [3 j] | 0.54 |  | complete conversion |  | conversion to GS-adduct within 5 min [1]: reacted completely; also recorded: complete conversion; conversion to GS-adduct within 5 min ([1]; listed as 3j): full conversion; extent of conversion to GS-adducts (in words) ([1]; listed as 3j): full
6 | COC(=O)c1ccc(C#CC#Cc2ccccn2)cc1 [3 e] | 17.6 | ~25% | partial |  | 
7 | COC(=O)c1ccc(C#CC#Cc2cncn2C)cc1 [3 b] | ≥ 100 |  |  | similar | 
8 | C(C#Cc1ccccc1)#Cc1ccccc1 [BADY, reference compound] | ≥ 100 | 1–2% | Minimal |  | change of 1H NMR 24 h post GSH addition [2]: no changes
9 | COC(=O)c1ccc(C#CC#Cc2ccncc2)cc1 [3 g] | 24.1 |  |  | similar | 
